# Measurements from US20240381872A1, “SUBSTITUTED 2,3-DIHYDRO[1,3]THIAZOLO[4,5-B]PYRIDINES, SALTS THEREOF AND THEIR USE AS HERBICIDALLY ACTIVE SUBSTANCES” (BAYER AKTIENGESELLSCHAFT, priority 2021, published 2024).
# Columns and labels:
# Format in all cases: in vivo
# [1] = tested on: Triticum aestivum (TRZAS); assay: Post-emergence effects on crop plants, section F (Table F2); conditions: for percent crop plant damage (wheat, post-emergence) at 320 g/ha / percent crop plant damage (wheat, post-emergence) at 80 g/ha: Triticum aestivum, 504 h, read-out: post-emergence activity against TRZAS in %; for percent crop plant damage (wheat, post-emergence) at 320 g/ha / post-emergence activity against TRZAS in %: application rate 320 g/ha; for percent crop plant damage (wheat, post-emergence) at 80 g/ha: application rate 80 g/ha; for post-emergence activity against TRZAS in %: crop plant damage
# Procedure, shortened: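 Crop seeds were sown in sandy loam in pots and greenhouse-grown; at the single-leaf stage, 2 to 3 weeks after sowing, plants were sprayed with WP or EC formulations plus 0.5% additive at 600 l water/ha, 320 g/ha or below. Damage was scored visually about 3 weeks later versus untreated controls (0–100%).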
# [2] = tested on: Matricaria inodora (MATIN); assay: Herbicidal pre-emergence action, section A (Table A6); conditions: visual grading after ca. 3 weeks vs untreated controls; for pest or weed control at 1280 g/ha / pest or weed control at 320 g/ha: Tripleurospermum inodorum, pre-emergence, 504 h, read-out: pre-emergence activity against MATIN in %; for pest or weed control at 320 g/ha: application rate 320 g/ha
# Procedure, shortened: (§1)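 Sandy loam pots, seeds covered with soil, treated on the soil surface with aqueous WP or EC preparations containing 0.5% additive (600 l/ha). Visual damage rating after ca. 3 weeks in greenhouse; scale 0% (as control) to 100% (plants died off).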
# Kochia scoparia (KCHSC) = assay: Herbicidal pre-emergence action, section A (Table A4); conditions: visual grading after ca. 3 weeks vs untreated controls
# Procedure, shortened: as §1
# [3] = tested on: Alopecurus myosuroides (ALOMY); assay: Herbicidal pre-emergence action, section A (Table A2); conditions: application rate 1280 g/ha, visual grading after ca. 3 weeks vs untreated controls; for pest or weed control at 1280 g/ha: Alopecurus myosuroides, pre-emergence, 504 h, read-out: pre-emergence activity against ALOMY in %
# Procedure, shortened: as §1
# Poa annua (POAAN) [4] = assay: Herbicidal pre-emergence action, section A (Table A7); conditions: visual grading after ca. 3 weeks vs untreated controls; for pest or weed control at 320 g/ha: Poa annua, pre-emergence, 504 h, read-out: pre-emergence activity against POAAN in %
# Procedure, shortened: as §1
# Stellaria media (STEME) = assay: Herbicidal pre-emergence action, section A (Table A9); conditions: for pest or weed control at 320 g/ha: Stellaria media, 504 h, application rate 320 g/ha, read-out: pre-emergence activity against STEME in %; for pre-emergence activity against STEME in %: application rate 1280 g/ha
# Procedure, shortened: as §1
# Poa annua (POAAN) [5] = assay: Herbicidal post-emergence action, section B (Table B7); conditions: visual rating about 3 weeks after treatment vs untreated controls; for pest or weed control at 1280 g/ha: application rate 1280 g/ha
# Procedure, shortened: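 Activity was scored visually as percent of untreated controls about 3 weeks after spraying, where 100% meant dead plants and 0% meant no difference. Plants were treated at the one-leaf stage with WP or EC formulations in water containing 0.5% additive, applied at 600 liters per hectare.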
# [6] = tested on: Alopecurus myosuroides (ALOMY); assay: Herbicidal post-emergence action, section E (Table E2); conditions: Alopecurus myosuroides, post-emergence, 504 h; application rate 320 g/ha; assessed visually after ca. 3 weeks; read-out: post-emergence activity against ALOMY in %
# From the text: (§2) Seeds of mono- and dicotyledonous weed plants and crop plants were sown, in plastic or organic planting pots, in sandy loam, covered with soil and grown in a greenhouse under controlled growth conditions. 2 to 3 weeks after sowing, the test plants were sprayed in the single-leaf stage. The compounds according to the invention, formulated in form of wettable powders (WP) or as emulsifiable concentrates (EC), were sprayed onto the green plant parts as aqueous suspension or emulsion, with the addition of 0.5% of an additive, at an application rate of 600 l of water/ha (converted). The test plants were placed in the greenhouse for ca. 3 weeks under optimum growth conditions, and then the effect of the preparations was assessed visually in comparison with untreated controls (herbicidal effect in percent (%): 100% effect=plants have died off, 0% effect=as control plants).
# [7] = tested on: Matricaria inodora (MATIN); assay: Herbicidal pre-emergence action, section C (Table C6); conditions: application rate 320 g/ha, visual grading after ca. 3 weeks; for pest or weed control at 320 g/ha: Tripleurospermum inodorum, pre-emergence, 504 h, read-out: pre-emergence activity against MATIN in %
# From the text: Seeds of mono- and dicotyledonous weed plants and crop plants were sown, in plastic or organic planting pots, in sandy loam and covered with soil. The compounds according to the invention, formulated in the form of wettable powders (WP) or as emulsifiable concentrates (EC), were applied to the surface of the covering soil as aqueous suspension or emulsion, with the addition of 0.5% of an additive, at an application rate of 600 l of water/ha (converted). Following treatment, the pots were placed in a greenhouse and kept under optimum growth conditions for the test plants. The visual grading of the damage to the test plants was carried out after ca. 3 weeks in comparison to untreated controls (herbicidal effect in percent (%): 100% effect=plants have died off, 0% effect=as control plants).
# [8] = tested on: Polygonum convolvulus (POLCO); assay: Herbicidal post-emergence action, section E (Table E7); conditions: visual assessment ca. 3 weeks after spraying
# From the text: as §2
# [9] = tested on: Echinochloa crus-galli (ECHCG); assay: Herbicidal post-emergence action, section E (Table E5); conditions: application rate 320 g/ha, visual assessment ca. 3 weeks after spraying
# From the text: as §2
# [10] = Poa annua, post-emergence, 504 h, read-out: post-emergence activity against POAAN in %
# [11] = Bassia scoparia, pre-emergence, 504 h, application rate 1280 g/ha, read-out: pre-emergence activity against KCHSC in %
compound,measurement,setting,value
"CC(=O)N1CSc2cc(Br)c(-c3ccccc3Cl)nc21 [Example I-055, 1-[6-bromo-5-(2-chlorophenyl)[1,3]thiazolo[4,5-b]pyridin-3(2H)-yl]ethanone]","percent crop plant damage (wheat, post-emergence) at 320 g/ha",[1],0%
same,pest or weed control at 1280 g/ha,[2]; application rate 1280 g/ha,90%
same,pest or weed control at 320 g/ha,"Kochia scoparia (KCHSC); Bassia scoparia, pre-emergence, 504 h, application rate 320 g/ha, read-out: pre-emergence activity against KCHSC in %",90%
same,pest or weed control at 1280 g/ha,[3],90%
same,pest or weed control at 320 g/ha,Poa annua (POAAN) [4]; application rate 320 g/ha,100%
same,pest or weed control at 320 g/ha,Stellaria media (STEME),90%
"CCS(=O)(=O)N1CSc2cc(C)c(-c3ccccc3F)nc21 [Example I-060, 3-(ethylsulfonyl)-5-(2-fluorophenyl)-6-methyl-2,3-dihydro[1,3]thiazolo[4,5-b]pyridine]",pest or weed control at 1280 g/ha,Poa annua (POAAN) [5]; [10],90%
same,"percent crop plant damage (wheat, post-emergence) at 80 g/ha",[1],0%
same,pest or weed control at 320 g/ha,[2],90%
same,pest or weed control at 320 g/ha,[6],90%
same,pest or weed control at 320 g/ha,[7],90%
same,pest or weed control at 1280 g/ha,Kochia scoparia (KCHSC); [11],100%
same,pest or weed control at 80 g/ha,"[8]; Fallopia convolvulus, 504 h, application rate 80 g/ha, read-out: post-emergence activity against POLCO in %",90%
same,pest or weed control at 1280 g/ha,[3],90%
same,pest or weed control at 320 g/ha,Poa annua (POAAN) [4]; application rate 320 g/ha,100%
same,pest or weed control at 320 g/ha,Stellaria media (STEME),90%
CC(C)C(=O)N1C[S+]([O-])c2cc(Br)c(-c3ccccc3)nc21 (stereo not drawn) [Example I-067],"percent crop plant damage (wheat, post-emergence) at 320 g/ha",[1],0%
same,pest or weed control at 320 g/ha,[7],80%
CCS(=O)(=O)N1C[S+]([O-])c2cc(C)c(-c3ccccc3C)nc21 (stereo not drawn) [Example I-074],pest or weed control at 320 g/ha,"Poa annua (POAAN) [5]; Poa annua, post-emergence, 504 h, application rate 320 g/ha, read-out: post-emergence activity against POAAN in %",90%
same,"percent crop plant damage (wheat, post-emergence) at 80 g/ha",[1],0%
same,pest or weed control at 320 g/ha,[2],90%
same,pest or weed control at 320 g/ha,[6],90%
same,pest or weed control at 1280 g/ha,Kochia scoparia (KCHSC); [11],100%
same,pest or weed control at 1280 g/ha,[3],90%
same,pest or weed control at 320 g/ha,Poa annua (POAAN) [4]; application rate 320 g/ha,100%
same,pest or weed control at 320 g/ha,Stellaria media (STEME),90%
Cc1cc2c(nc1-c1ccccc1)N(C(=O)C1(C)CC(Cl)=NO1)CS2 (stereo not drawn) [Example I-088],post-emergence activity against POAAN in %,Poa annua (POAAN) [5]; application rate 320 g/ha,90%
same,post-emergence activity against TRZAS in %,[1],20%
same,pre-emergence activity against MATIN in %,[2]; application rate 1280 g/ha,90%
same,pre-emergence activity against MATIN in %,[7],90%
same,pre-emergence activity against KCHSC in %,Kochia scoparia (KCHSC); application rate 1280 g/ha,90%
same,post-emergence activity against POLCO in %,[8]; application rate 320 g/ha,90%
same,pre-emergence activity against ALOMY in %,[3],100%
same,pre-emergence activity against POAAN in %,Poa annua (POAAN) [4]; application rate 320 g/ha,100%
same,pre-emergence activity against STEME in %,Stellaria media (STEME),90%
Cc1cc2c(nc1-c1cccc(C)c1F)NCS2 [Example I-113],post-emergence activity against POAAN in %,Poa annua (POAAN) [5]; application rate 320 g/ha,90%
same,post-emergence activity against TRZAS in %,[1],20%
same,pre-emergence activity against KCHSC in %,Kochia scoparia (KCHSC); application rate 320 g/ha,90%
same,post-emergence activity against ECHCG in %,[9],80%
same,pre-emergence activity against POAAN in %,Poa annua (POAAN) [4]; application rate 1280 g/ha,100%
same,pre-emergence activity against STEME in %,Stellaria media (STEME),90%
"CC1(C(=O)N2CSc3cc(Br)c(-c4ccccc4Cl)nc32)CC(Cl)=NO1 (stereo not drawn) [Example I-141, [6-bromo-5-(2-chlorophenyl)[1,3]thiazolo[4,5-b]pyridin-3(2H)-yl](3-chloro-5-methyl-4,5-dihydro-1,2-oxazol-5-yl)methanone]",pest or weed control at 1280 g/ha,Poa annua (POAAN) [5]; [10],90%
same,"percent crop plant damage (wheat, post-emergence) at 320 g/ha",[1],0%
same,pest or weed control at 1280 g/ha,[2]; application rate 1280 g/ha,90%
same,pest or weed control at 1280 g/ha,Kochia scoparia (KCHSC); [11],100%
same,pest or weed control at 1280 g/ha,[3],90%
same,pest or weed control at 320 g/ha,Poa annua (POAAN) [4]; application rate 320 g/ha,100%
same,pest or weed control at 320 g/ha,Stellaria media (STEME),90%
